Reference: patent US20140303144A1, “COMPOUNDS AND METHODS OF TREATING HYPERTENSION” (Medivation Technologies, Inc., priority 2011, published 2014)

Legend:
[1] = target: T1, human recombinant adrenergic α2B receptor (Homo sapiens, UniProt P18089); assay: Adrenergic α2B radioligand binding assay ([3H]Rauwolscine); conditions: 0.1 μM compound; read-out: Percentage inhibition of ligand binding, Adrenergic α2B
T1 construct: expressed in transfected cells; host or cells: CHO-K1 cells
T1 sequence (P18089 1-450): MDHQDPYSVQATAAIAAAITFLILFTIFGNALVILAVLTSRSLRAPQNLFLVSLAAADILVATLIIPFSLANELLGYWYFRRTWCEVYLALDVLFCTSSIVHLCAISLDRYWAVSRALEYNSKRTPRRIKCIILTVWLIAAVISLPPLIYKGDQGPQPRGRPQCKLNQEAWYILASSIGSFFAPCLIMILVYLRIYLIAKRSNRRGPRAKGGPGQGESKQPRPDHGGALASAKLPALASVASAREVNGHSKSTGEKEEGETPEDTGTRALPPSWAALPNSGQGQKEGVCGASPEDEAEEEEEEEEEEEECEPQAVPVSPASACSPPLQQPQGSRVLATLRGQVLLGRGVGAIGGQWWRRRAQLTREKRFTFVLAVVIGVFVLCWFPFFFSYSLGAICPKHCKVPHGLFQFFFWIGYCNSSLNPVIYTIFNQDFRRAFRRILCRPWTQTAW
Experimental: To evaluate in radioligand binding assays the activity of compounds of the invention, human recombinant adrenergic α2B receptor expressed in Chinese hamster ovary (CHO) K1 cells (Uhlen, S. et al, Eur. J. Pharmacol. 343(1):93, 1998) in a modified Tris-HCl buffer (50 mM Tris-HCl, pH 7.4, 12.5 mM MgCl2, 1 mM EDTA, 0.2% BSA) was used. Compounds of the invention were incubated with 2.5 nM [3H]Rauwolscine for 60 min at 25° C. Non-specific binding was estimated in the presence of 10 μM Prazosin. Receptor proteins were filtered and washed, the filters were then counted to determine [3H]Rauwolscine specifically bound. Compounds were screened at 1 μM or lower, using 1% DMSO as vehicle. Compounds of the invention were tested in this biochemical assay and percent inhibition of specific binding was determined. Biochemical assay results are presented as the percent inhibition of specific binding in Tables B1A-B1D.

SH-SY5Y cells = assay: Cell viability assay (MTS reduction) against 4-Br-A23187 challenge; type: cell-based; conditions: Homo sapiens, SH-SY5Y, compound 10 nM, 4-Br-A23187 (2 μM) for 24 h, Control = 100, Vehicle = 0, read-out: Relative Cytoprotective capacity
Experimental: SH-SY5Y cells cultured in DMEM/F12 media supplemented with 10% FBS were seeded in 96-well microplates at 150,000 cells/cm^2. After 24 h, cells were depleted from FBS and kept in culture for 24 h before the experiment. A stock solution was prepared by dissolving the calcium ionophore 4-Br-A23187 (Calbiochem Cat. N^o 100107) in DMSO at 25 mM. Cells were then treated with 4-Br-A23187 (2 μM), hydrogen peroxide (300 μM) or the mitochondrial toxin rotenone (25 μM) in the presence of vehicle or Compound of the Invention for 24 h. Cell death was determined by measurements of LDH release according to the Cytotoxicity Detection KitPlus (Roche, Mannheim, Germany). Cell viability was determined by measuring the capacity of cells to metabolize MTS tetrazolium (MTS) according to the Cytotoxicity Detection KitPlus (Roche, Mannheim, Germany) and MTS reduction was assessed by the CellTiter 96® AQueous One Solution Cell Proliferation assay (Promega Corporation, Madison, Wis., USA). Compounds were screened at 10 nM, using DMSO as vehicle. Assay results for the experiments with Br-A23187 were presented as the MTS reduction capacity (cell viability) of untreated cells (control), 4-Br-A23187-treated cells (vehicle), and co-incubation of Br-A23187 with Compounds of the Invention treated cells and using […] (FCCP) at 10 μM for 30 min as a control. This assay assesses the ability of the test compounds to protect against cell death that was mediated by mitochondrial dysfunction. In the assay, the calcium ionophore 4-Br-A23187 was used to challenge the cells, causing calcium levels to rise in mitochondria, which leads to depolarization and cell death. Test compounds were assessed for their ability to prevent cell death in response to challenge with 4-Br-A23187.

| SMILES | inhibition at 0.1 µM [1] | viability at 0.01 µM (SH-SY5Y cells) |
| --- | --- | --- |
| Cc1cc(-c2ccncc2)c2c(c1)c1c(n2C)CCN(C)C1 [A9] | -7% | 15.8% |
| Cc1cc(C#Cc2ccncc2)c2c(c1)c1c(n2C)CCN(C)C1 [A17] | 21% | 10.8% |
| Cc1cc(CCc2ccc(C)nc2)c2c(c1)c1c(n2C)CCN(C)C1 [A13] | 5% | 19.7% |
| Cc1cc(/C=C/c2ccc(C)nc2)c2c(c1)c1c(n2C)CCN(C)C1 [A14] | -3% | – |
| C/C(=C\c1cc(C)cc2c3c(n(C)c12)CCN(C)C3)c1ccc(C)nc1 [A15] | 21% | – |
| Cc1cc(C#Cc2nccs2)c2[nH]c3c(c2c1)CN(C)CC3 [A16] | 17% | – |
| Cc1cc(C#Cc2cccs2)c2[nH]c3c(c2c1)CN(C)CC3 [A8] | -1% | – |
| C/C(=C\c1cc(C)cc2c3c(n(C)c12)CCN(C)C3)c1ccncc1 [A11] | 14% | 37.6% |
| Cc1cc(-c2ccc(F)cc2)c2c(c1)c1c(n2C)CCN(C)C1 [A7] | -9% | – |
| C#Cc1cc(C)cc2c3c(n(C)c12)CCN(C)C3 [A10] | 8% | – |
| Cc1ccc(C#Cc2cc(Cl)cc3c4c(n(C)c23)CCN(C)C4)cn1 [A18] | 38% | 26% |
| Cc1cc(C#Cc2ccc(C)nc2)c2c(c1)c1c(n2C)CCN(C)C1 [A12] | 6% | 35.7% |

Further lines, with some results ahead:

| inhibition at 0.1 µM [1] | SMILES | viability at 0.01 µM (SH-SY5Y cells) |
| --- | --- | --- |
| 72% | Cc1cc2c3c(c1)c1c(n3C(c3ccccc3)C2)CCN(C)C1 (stereo not shown) [B12] | – |
| -6% | Cc1ccc2c(c1)c1c3n2C(c2ccccc2)=CCC3(C)CN(C)C1 (stereo not shown) [D10] | – |
| -8% | Cc1cc2c3c(c1)c1c(n3CC(C)(c3ccc(C)nc3)OC(C)C2)CCN(C)C1 (stereo not shown) [B160] | – |
| -7% | Cc1ccc2c(c1)c1c3n2C(c2ccccc2)CCC3(C)CN(C)C1 (stereo not shown) [D12] | 32.5% |
| 43% | Cc1cc2c3c(c1)c1c(n3CC(C)(c3ccncc3)OC(C)C2)CCN(C)C1 (stereo not shown) [B165] | – |
| 27% | Cc1cc2c3c(c1)c1c(n3C[C@@](C)(c3ccncc3)O[C@H]2C)CCN(C)C1 [B162] | – |
| 4% | Cc1cc2c3c(c1)c1c(n3C[C@](C)(c3ccncc3)O[C@H]2C)CCN(C)C1 [B163] | – |
| 30% | Cc1ccc2c(c1)c1c3n2CC(c2ccncc2)=CCC3(C)CN(C)C1 (stereo not shown) [D11] | 30.3% |
